Laboratory results reported in US20120070392A1, “COMPOSITION FOR INHIBITING ERYTHEMA CAUSED BY ULTRAVIOLET RADIATION CONTAINING A DIPEPTIDE AS ACTIVE INGREDIENT” (priority 2009, published 2012).
Read-outs that look alike come from different tables or passages of the source.

System: PGE2 production
Experiment: Inhibition of UVB-induced PGE2 production in cultured human keratinocytes (PGE2 assay kit, calibrated with MTT absorbance)
Format: cell-based
Description: Human keratinocytes were seeded at a density of 1×10^5 cells/well to 6-well plates containing 2 mL of KGM(keratinocyte growth medium, Clonetics, San Diego, Calif., USA) per well and cultured overnight. Then, the medium was replaced with KBM(keratinocyte basal medium) supplemented with 0.1% BSA(bovine serum albumin) and the cells were cultured for an additional 24 hours. Subsequently, the cells were pre-treated for an additional 24 hours with 2 mL of the same medium containing 10 μg/ml of each of the dipeptides listed in Table 1. […] The pre-treated medium was transferred to new 24 well plates and 1 mL of DPBS(Dulbecco's phosphate buffered saline) was added to the cells in each well. During UV irradiation, the transferred medium was stored in a cell incubator. […] At this time, the control was covered with aluminum foil. After the removal of DPBS, the transferred medium was returned to each well. The cells were further cultured for 24 hours, after which 1 mL of the medium was transferred to microcentrifuge tubes. […] The supernatants were then removed and the formazan crystals were solubilized in 1 ml of DMSO(dimethylsulfoxide). One hundred μL of the solution was transferred to each well of 96-well plates and an optical density was determined at 540 nm using an ELISA(enzyme-linked immunosorbent assay) reader. […] The concentration of PGE2 was determined using a PGE2 Assay Kit(KGE004, R&D Systems, Inc., Minneapolis, Minn., USA) according to the manufacturer's instruction. […] After removal of the reaction, the wells were washed five times with 400 μL of wash buffer. To each well was added 200 μL of a substrate solution, followed by incubation for 20 30 min. The reaction was terminated with 50 μL of a stop solution per well before determining absorbance at 450 nm on an ELISA reader. The PGE2 concentration of each sample was calculated from the standard graph and calibrated with the absorbance obtained in the MTT assay to determine their inhibitory activity against PGE2 production.

[1] = 10 μg/ml dipeptide, 24 h pre-treatment, human keratinocytes, UVB 100 mJ/cm^2, medium assayed 24 h after irradiation, […], 10% or more regarded as effective
[2] = 10 μg/ml dipeptide, 24 h pre-treatment, human keratinocytes, UVB 100 mJ/cm^2, medium assayed 24 h after irradiation, 0% or lower expressed as zero, 10% or more regarded as effective

With `NCC(=O)O.N[C@@H](CC(=O)O)C(=O)O` [DG, aspartic acid-glycine] the “% Inhibition against PGE2 Production” value was 79.7%.
In the case of `NCC(=O)O.N[C@@H](CCC(=O)O)C(=O)O` [EG, glutamic acid-glycine], the “% Inhibition against PGE2 Production” value is reported as 90.9%.
With `NCC(=O)O.N[C@@H](CC(=O)O)C(=O)O` [GD, glycine-aspartic acid] the “% Inhibition against PGE2 Production” value was 23.8%.
With `NCC(=O)O.NCCCC[C@H](N)C(=O)O` [GK, glycine-lysine] the “% Inhibition against PGE2 Production” value was 87.0%.
`NC(=O)CC(N)C(=O)O` (stereo not shown) [NN, asparagine-asparagine] was tested, and the “% Inhibition against PGE2 Production” value [1] was 48.3%.
`NCC(=O)O.O=C(O)[C@@H]1CCCN1` [PG, proline-glycine] was tested, and the “% Inhibition against PGE2 Production” value was 80.7%.
`N=C(N)NCCC[C@H](N)C(=O)O.NCC(=O)O` [RG, arginine-glycine] was tested, and the “% Inhibition against PGE2 Production” value was 82.8%.
For `NCC(=O)O.N[C@@H](Cc1c[nH]c2ccccc12)C(=O)O` [WG, tryptophan-glycine], the “% Inhibition against PGE2 Production” value [2] was 91.3%.
alanine-alanine [AA] was tested, and the “% Inhibition against PGE2 Production” value [2] was 78.4%.
alanine-arginine was tested, and the “% Inhibition against PGE2 Production” value [1] was 95.7%.
For alanine-asparagine, the “% Inhibition against PGE2 Production” value was 58.8%.
In the case of alanine-aspartic acid [AD], the “% Inhibition against PGE2 Production” value [1] is reported as 58.3%.
With alanine-cysteine [AC] the “% Inhibition against PGE2 Production” value [1] was 70.8%.
In the case of alanine-glutamic acid [AE], the “% Inhibition against PGE2 Production” value [1] is reported as 74.6%.
With alanine-glutamine [AQ] the “% Inhibition against PGE2 Production” value [1] was 69.0%.
For alanine-histidine [AH], the “% Inhibition against PGE2 Production” value was 64.7%.
With alanine-isoleucine [AI] the “% Inhibition against PGE2 Production” value [1] was 60.1%.
With alanine-leucine the “% Inhibition against PGE2 Production” value [1] was 48.9%.
alanine-lysine [AK] was tested, and the “% Inhibition against PGE2 Production” value [1] was 90.3%.
In the case of alanine-phenylalanine [AF], the “% Inhibition against PGE2 Production” value [1] is reported as 84.2%.
For alanine-proline [AP], the “% Inhibition against PGE2 Production” value was 26.3%.
In the case of alanine-serine [AS], the “% Inhibition against PGE2 Production” value [1] is reported as 72.5%.
For alanine-tyrosine [AY], the “% Inhibition against PGE2 Production” value was 31.8%.
alanine-valine [AV] was tested, and the “% Inhibition against PGE2 Production” value was 44.8%.
For arginine-arginine [RR], the “% Inhibition against PGE2 Production” value [1] was 90.5%.
In the case of arginine-asparagine [RN], the “% Inhibition against PGE2 Production” value [1] is reported as 10.7%.
arginine-aspartic acid [RD] was tested, and the “% Inhibition against PGE2 Production” value [1] was 24.1%.
arginine-cysteine [RC] was tested, and the “% Inhibition against PGE2 Production” value [1] was 95.1%.
arginine-glutamic acid [RE] was tested, and the “% Inhibition against PGE2 Production” value [1] was 58.8%.
arginine-leucine [RL] was tested, and the “% Inhibition against PGE2 Production” value [1] was 30.4%.
arginine-lysine [RK] was tested, and the “% Inhibition against PGE2 Production” value [1] was 88.2%.
In the case of arginine-methionine [RM], the “% Inhibition against PGE2 Production” value is reported as 84.7%.
arginine-proline [RP] was tested, and the “% Inhibition against PGE2 Production” value was 88.7%.
With arginine-serine [RS] the “% Inhibition against PGE2 Production” value [1] was 50.3%.
With arginine-threonine [RT] the “% Inhibition against PGE2 Production” value [1] was 27.5%.
With arginine-tryptophan [RW] the “% Inhibition against PGE2 Production” value [1] was 34.9%.
arginine-tyrosine [RY] was tested, and the “% Inhibition against PGE2 Production” value was 67.3%.
asparagine-alanine [NA] was tested, and the “% Inhibition against PGE2 Production” value [2] was 42.0%.
With asparagine-arginine [NR] the “% Inhibition against PGE2 Production” value [1] was 72.8%.
asparagine-cysteine [NC] was tested, and the “% Inhibition against PGE2 Production” value was 83.1%.
asparagine-glutamic acid was tested, and the “% Inhibition against PGE2 Production” value [1] was 14.5%.
With asparagine-glutamine [NQ] the “% Inhibition against PGE2 Production” value [1] was 70.1%.
asparagine-histidine [NH] was tested, and the “% Inhibition against PGE2 Production” value was 65.8%.
For asparagine-leucine [NL], the “% Inhibition against PGE2 Production” value [1] was 72.6%.
asparagine-methionine [NM] was tested, and the “% Inhibition against PGE2 Production” value was 89.5%.
With asparagine-phenylalanine [NF] the “% Inhibition against PGE2 Production” value [1] was 88.2%.
For asparagine-proline [NP], the “% Inhibition against PGE2 Production” value was 70.6%.
For asparagine-serine [NS], the “% Inhibition against PGE2 Production” value was 31.9%.
For asparagine-threonine [NT], the “% Inhibition against PGE2 Production” value was 57.2%.
asparagine-tyrosine [NY] was tested, and the “% Inhibition against PGE2 Production” value was 58.1%.
In the case of asparagine-valine [NV], the “% Inhibition against PGE2 Production” value is reported as 80.4%.
In the case of aspartic acid-alanine [DA], the “% Inhibition against PGE2 Production” value [1] is reported as 94.1%.
For aspartic acid-asparagine [DN], the “% Inhibition against PGE2 Production” value was 85.6%.
For aspartic acid-aspartic acid [DD], the “% Inhibition against PGE2 Production” value [1] was 64.2%.
With aspartic acid-cysteine [DC] the “% Inhibition against PGE2 Production” value [1] was 77.6%.
With aspartic acid-glutamic acid [DE] the “% Inhibition against PGE2 Production” value [1] was 58.5%.
With aspartic acid-glutamine [DQ] the “% Inhibition against PGE2 Production” value [1] was 52.4%.
aspartic acid-histidine [DH] was tested, and the “% Inhibition against PGE2 Production” value was 59.2%.
For aspartic acid-isoleucine [DI], the “% Inhibition against PGE2 Production” value [1] was 25.9%.
In the case of aspartic acid-leucine [DL], the “% Inhibition against PGE2 Production” value [1] is reported as 75.8%.
aspartic acid-lysine [DK] was tested, and the “% Inhibition against PGE2 Production” value [1] was 76.6%.
With aspartic acid-methionine [DM] the “% Inhibition against PGE2 Production” value was 63.1%.
In the case of aspartic acid-phenylalanine [DF], the “% Inhibition against PGE2 Production” value [1] is reported as 83.4%.
In the case of aspartic acid-proline [DP], the “% Inhibition against PGE2 Production” value is reported as 89.3%.
With aspartic acid-serine [DS] the “% Inhibition against PGE2 Production” value [1] was 84.0%.
aspartic acid-threonine [DT] was tested, and the “% Inhibition against PGE2 Production” value [1] was 95.8%.
With aspartic acid-tryptophan [DW] the “% Inhibition against PGE2 Production” value [1] was 67.3%.
For aspartic acid-valine [DV], the “% Inhibition against PGE2 Production” value [1] was 30.7%.
For cysteine-asparagine [CN], the “% Inhibition against PGE2 Production” value was 92.0%.
cysteine-glutamic acid [CE] was tested, and the “% Inhibition against PGE2 Production” value [1] was 54.4%.
With cysteine-glutamine [CQ] the “% Inhibition against PGE2 Production” value [1] was 93.9%.
With cysteine-methionine [CM] the “% Inhibition against PGE2 Production” value was 69.7%.
For cysteine-serine [CS], the “% Inhibition against PGE2 Production” value [1] was 53.1%.
With cysteine-tryptophan [CW] the “% Inhibition against PGE2 Production” value [1] was 71.0%.
glutamic acid-alanine [EA] was tested, and the “% Inhibition against PGE2 Production” value [1] was 55.3%.
With glutamic acid-arginine [ER] the “% Inhibition against PGE2 Production” value [1] was 72.8%.
With glutamic acid-aspartic acid [ED] the “% Inhibition against PGE2 Production” value [1] was 85.1%.
For glutamic acid-glutamic acid [EE], the “% Inhibition against PGE2 Production” value [1] was 86.5%.
For glutamic acid-glutamine [EQ], the “% Inhibition against PGE2 Production” value [1] was 79.6%.
With glutamic acid-histidine [EH] the “% Inhibition against PGE2 Production” value was 75.4%.
With glutamic acid-isoleucine [EI] the “% Inhibition against PGE2 Production” value [1] was 74.0%.
glutamic acid-leucine [EL] was tested, and the “% Inhibition against PGE2 Production” value [1] was 56.2%.
For glutamic acid-lysine [EK], the “% Inhibition against PGE2 Production” value [1] was 76.5%.
In the case of glutamic acid-methionine [EM], the “% Inhibition against PGE2 Production” value is reported as 58.4%.
With glutamic acid-phenylalanine [EF] the “% Inhibition against PGE2 Production” value [1] was 13.3%.
In the case of glutamic acid-proline [EP], the “% Inhibition against PGE2 Production” value is reported as 80.8%.
glutamic acid-serine [ES] was tested, and the “% Inhibition against PGE2 Production” value [1] was 48.8%.
glutamic acid-threonine [ET] was tested, and the “% Inhibition against PGE2 Production” value [1] was 67.9%.
glutamic acid-tyrosine [EY] was tested, and the “% Inhibition against PGE2 Production” value was 75.9%.
In the case of glutamic acid-valine [EV], the “% Inhibition against PGE2 Production” value [1] is reported as 86.4%.
With glutamine-arginine [QR] the “% Inhibition against PGE2 Production” value [1] was 33.6%.
glutamine-asparagine [QN] was tested, and the “% Inhibition against PGE2 Production” value [1] was 13.9%.
glutamine-aspartic acid [QD] was tested, and the “% Inhibition against PGE2 Production” value [1] was 66.0%.
glutamine-glutamine [QQ] was tested, and the “% Inhibition against PGE2 Production” value [1] was 92.5%.
For glutamine-histidine [QH], the “% Inhibition against PGE2 Production” value was 14.8%.
With glutamine-lysine [QK] the “% Inhibition against PGE2 Production” value [1] was 25.9%.
In the case of glutamine-phenylalanine [QF], the “% Inhibition against PGE2 Production” value [1] is reported as 19.0%.
With glutamine-serine [QS] the “% Inhibition against PGE2 Production” value [1] was 28.2%.
With glutamine-threonine [QT] the “% Inhibition against PGE2 Production” value [1] was 25.0%.
glutamine-tryptophan [QW] was tested, and the “% Inhibition against PGE2 Production” value [1] was 42.8%.
glutamine-tyrosine [QY] was tested, and the “% Inhibition against PGE2 Production” value was 54.6%.
With glutamine-valine [QV] the “% Inhibition against PGE2 Production” value [1] was 59.7%.
In the case of glycine-alanine [GA], the “% Inhibition against PGE2 Production” value [2] is reported as 17.6%.
In the case of glycine-glycine [GG], the “% Inhibition against PGE2 Production” value is reported as 26.1%.
For histidine-alanine [HA], the “% Inhibition against PGE2 Production” value [2] was 44.1%.
In the case of histidine-histidine [HH], the “% Inhibition against PGE2 Production” value [2] is reported as 79.8%.
